A word on the IC50: it is the concentration at which inhibition is half-maximal.

Values joined by “and” are separate entries in the source; they are usually repeats but may differ in a detail not shown here. Equal values may be shown once. Read-outs that look alike come from different tables or passages of the source.

These results are taken from PMC11253858, “New melphalan derivatives for the treatment of retinoblastoma in combination with thermotherapy” (RSC Medicinal Chemistry, 2024).

Series [1] concerns Y79 human retinoblastoma cell line. The series is described as follows: Presto blue cell viability assay in Y79 after 24 hours. It is filed as cell-based. The settings on record: for IC50: Homo sapiens; for fold increase in cytotoxicity (lower IC50) compared to melphalan / cytotoxicity at the elevated temperature relative to 37 °C: Y79, 24 hours; for fold increase in cytotoxicity (lower IC50) compared to melphalan: 37 °C; for cytotoxicity at the elevated temperature relative to 37 °C: 42 °C for 1 hour vs 37 °C. On the procedure: The IC50 values were determined using the presto blue cell viability assay (Table 1).
(§1) The human retina (RPE1) and retinoblastoma (Y79) cell lines were purchased from ATCC, Switzerland. RPMI 1640, DMEM high glucose Glutamax and DMEM GlutaMAX media were obtained from Life Technologies, and fetal bovine serum (FBS) was obtained from Sigma. Cell culture was performed in RPMI 1640 with 20% FBS and DMEM high glucose Glutamax with 10% FBS for Y79 and RPE1, respectively. Cell passage was performed twice per week using the appropriate medium and the resulting flaks were maintained in a bioincubator (Thermo Scientific, Switzerland) that controlled the humidity and fixed the CO2 rate to 5%. Cell viability tests were conducted in a flat bottomed 96 or 384 well plate using a compound stock solution prepared in dimethyl sulfoxide (DMSO) for all compounds except Cisplatin. The maximum concentration of DMSO in the wells was 0.1% DMSO.
2. Presto Blue cell viability assay in Y79 after 24 hours
The optimization of the starting concentration was carried out for each tested compound after 24 h of incubation. In order to conduct the tests at the mentioned time lapses, Y79’s work cell solutions were prepared at 10 6 cell/mL for the 24 h experiment. The same protocol as described below was used, however in this case, the experiment was conducted […]
3. Presto Blue cell viability assay in Y79 and RPE1 cells at 72 h […]
tests were conducted using cell work solutions at 4x10^5 and 7x10^5 cell/mL respectively and compound stock solutions were prepared at 10 µM in DMSO. The robotic System (Echo 550 […]
LIQUID HANDLER) charged the 384-cell plate with a decreasing volume of each compound’s SS in order to have a concentration gradient that covers 100 to 0.7 µM. DMSO was added to […]
added in the plate using a disperser (Thermo Scientific Multidrop Combi, Switzerland).
(§2) For thermal assays, the plates were placed in a heat chamber at 42 °C for 1 h and then transferred to a bioincubator at 37 °C for 71 h where the control plates were already placed. After 72 h of a total incubation time, […] of presto blue were added to each well and all the plates were incubated for 1 h at 37 °C. For presto blue cell viability assays, gambogic acid was used at 10 µM and represented the positive control, while DMSO at a final concentration of 0.1% presented the negative control. Fluorescence was measured using a […]
(§3) plate reader (Tecan […] F500 reader, Switzerland) at 560 nm for […] and 590 nm for fluorescence. The normalization of the fluorescence’s intensities was conducted with GraphPad software using Gambogic acid and DMSO as positive and negative control, […]

Series [2] relates to human retinoblastoma cells (Y79). The series is described as follows: Presto Blue cell viability assay in Y79 cells at 72 h. Type of series: cell-based. On the procedure:
(§4) The cytotoxicity of the two most promising derivatives, i.e.3d and 3e, was subsequently evaluated on human retinoblastoma (Y79) and healthy human retina (RPE1) immortalised cells after 72 hours of incubation in 2D settings under standard conditions, i.e. at 37 °C and 5% CO2, and also under conditions that mimic mild hyperthermia, i.e. at 42 °C for 1 hour followed by 71 hours at 37 °C, respectively, see Table 2.
as §1, with “DMSO. […]” for “DMSO.”
(§5) 3. Presto Blue cell viability assay in Y79 and RPE1 cells at 72 h
(§6) In order to evaluate the cytotoxicity of 3a-3f on Y79 and RPE1 cell lines, cell viability tests were conducted using cell work solutions at 4x10^5 and 7x10^5 cell/mL respectively and compound stock solutions were prepared at 10 µM in DMSO. The robotic System (Echo 550 […]
(§7) LIQUID HANDLER) charged the 384-cell plate with a decreasing volume of each compound’s SS in order to have a concentration gradient that covers 100 to 0.7 µM. DMSO was added to each well so as to have the same final volume of compound’s solution in each well. Cells were added in the plate using a disperser (Thermo Scientific Multidrop Combi, Switzerland).
as §2, §3

In series [3] the test system is healthy human retina (RPE1) immortalised cells. The series is described as follows: Presto Blue cell viability assay in RPE1 cells at 72 h. The settings on record: for cytotoxicity to healthy RPE1 cells relative to tumoral Y79 cells (selectivity): 72 hours; for IC50: Homo sapiens, RPE-1. Type of series: cell-based. On the procedure:
as §4
as §1, with “DMSO. […]” for “DMSO.”
as §5, §6, §7, §2, §3

For series [4], the system named is dsDNA oligonucleotide 5'-AGGCAG-3' (B1) / 3'-TCCGTC-5' (B2). The series is described as follows: DNA binding ESI-MS study with model double stranded oligonucleotide. The settings on record: 37 °C, 48 hours incubation; for adduct formation with the dsDNA oligonucleotide (ESI-MS): 1 : 5 ratio. The procedure: The resulting solutions were measured by electrospray ionization mass spectrometry (ESI-MS) and the analysis of the spectra[45] is provided in the ESI ^† and summarised in Fig. 2a.
Furthermore, the relative amount of melphalan derivative-bound dsDNA follows the same trend as the toxicity of the compounds. […] The relative amount of these adducts decreases with the chain length, which could be a consequence of the higher hydrophobicity of the compounds and hint at a higher resistance to hydrolysis. […] No crosslinked DNA adducts, known to be relevant hallmarks in the melphalan mechanism of action, were detected, probably due to the difficulty to observe them upon ionization.[47]

In series [5] the test system is myeloma RPMI 8226 cell line. Details: method as in PMID 32161295. The settings on record: cited from earlier work.
Setting [6] is: Y79, 1 hour at 42 °C followed by 23 hours at 37 °C, read-out: IC50 42 °C.
The mark [7] stands for this setting: Y79, 24 hours at 37 °C, 5% CO2, read-out: IC50 37 °C.
[8] abbreviates: Y79, 1 hour at 42 °C followed by 71 hours at 37 °C, read-out: Y79 IC50 42 °C.
Where [9] appears, read: Y79, 72 hours at 37 °C, read-out: Y79 IC50 37 °C.
Where [10] appears, read: RPE1, 1 hour at 42 °C followed by 71 hours at 37 °C, read-out: RPE1 IC50 42 °C.
[11] abbreviates: RPE1, 72 hours at 37 °C, read-out: RPE1 IC50 37 °C.

For the molecule `Cl.N[C@@H](Cc1ccc(N(CCCl)CCCl)cc1)C(=O)OCCC(F)(F)C(F)(F)C(F)(F)C(F)(F)C(F)(F)C(F)(F)F` [Compound 3d], the IC50 is 3.3 ± 0.2 µM in series [1] (setting [6]); 5.9 ± 0.3 µM in series [1] (setting [7]); 2.1 ± 0.2 µM in series [2] (setting [8]); 2.3 ± 0.1 µM in series [2] (setting [9]); 31.5 ± 2.7 µM in series [3] (setting [10]); 39.3 ± 5 µM in series [3] (setting [11]). For the same molecule, in series [1], the “fold increase in cytotoxicity (lower IC50) compared to melphalan” value is 5 to 10 fold and 10 fold. Also, the “cytotoxicity at the elevated temperature relative to 37 °C” value in series [1] was “approximately twice as cytotoxic”. For the same molecule, the “cytotoxicity to healthy RPE1 cells relative to tumoral Y79 cells (selectivity)” value in series [3] is listed as “more than an order of magnitude less cytotoxic”. In series [4], the “extent of ester cleavage in oligonucleotide adducts (ESI-MS)” value is “more significant”.
As for `N[C@@H](Cc1ccc(N(CCCl)CCCl)cc1)C(=O)OCCC(F)(F)C(F)(F)C(F)(F)C(F)(F)F` [Compound 3c], the values for the half-inhibitory concentration (IC50) in series [1] (setting [6]) and in series [1] (setting [7]) were 2.1 ± 0.2 µM and 3.4 ± 0.2 µM, respectively.
For `N[C@@H](Cc1ccc(N(CCCl)CCCl)cc1)C(=O)OCCC(F)(F)C(F)(F)F` [Compound 3b], the IC50 came out at 1.8 ± 0.1 µM in series [1] (setting [6]) and 2.2 ± 0.1 µM in series [1] (setting [7]).
In the case of `Cl.N[C@@H](Cc1ccc(N(CCCl)CCCl)cc1)C(=O)OCCC(F)(F)C(F)(F)C(F)(F)C(F)(F)C(F)(F)C(F)(F)C(F)(F)C(F)(F)C(F)(F)C(F)(F)F` [Compound 3f], the half-inhibitory concentration (IC50) was 183 ± 20 µM in series [1] (setting [6]) and more than 200 µM in series [1] (setting [7]). The “adduct formation with the dsDNA oligonucleotide (ESI-MS)” value in series [4] is reported as “no adducts were observed”.
`Cl.N[C@@H](Cc1ccc(N(CCCl)CCCl)cc1)C(=O)OCCC(F)(F)C(F)(F)C(F)(F)C(F)(F)C(F)(F)C(F)(F)C(F)(F)C(F)(F)F` [Compound 3e]: the IC50 worked out at 6.6 ± 0.4 µM in series [1] (setting [6]); 13 ± 0.4 µM in series [1] (setting [7]); 4.4 ± 0.3 µM in series [2] (setting [8]); 4.5 ± 0.1 µM in series [2] (setting [9]); 42.3 ± 6 µM in series [3] (setting [10]); 52.8 ± 9.3 µM in series [3] (setting [11]). For the same molecule, the “fold increase in cytotoxicity (lower IC50) compared to melphalan” value in series [1] is 5 to 10 fold and 5 fold. Moreover, the “cytotoxicity at the elevated temperature relative to 37 °C” value in series [1] is given as “approximately twice as cytotoxic”. The “cytotoxicity to healthy RPE1 cells relative to tumoral Y79 cells (selectivity)” value in series [3] is reported as “more than an order of magnitude less cytotoxic”. Also, in series [4], the “extent of ester cleavage in oligonucleotide adducts (ESI-MS)” value is “more significant”.
Take `N[C@@H](Cc1ccc(N(CCCl)CCCl)cc1)C(=O)OCCC(F)(F)F` [Compound 3a]: the IC50 stood at 1.1 ± 0.1 µM in series [1] (setting [6]) and 1.2 ± 0.1 µM in series [1] (setting [7]).
Regarding `CCOC(=O)C(N)Cc1ccc(N(CCCl)CCCl)cc1` (stereo not shown) [ethyl ester derivative of melphalan], in series [5], the 50% inhibitory concentration (IC50) is 1.2 ± 0.3 µM and the “fold increase in cytotoxicity compared to melphalan” value is 8 fold.
For `N[C@@H](Cc1ccc(N(CCCl)CCCl)cc1)C(=O)O` [Melphalan], the IC50 in series [1] (setting [6]) was found to be 26 ± 2 µM; in series [1] (setting [7]) it was 59 ± 5 µM. For the same molecule, the “adduct formation with the dsDNA oligonucleotide (ESI-MS)” value in series [4] is “formed adducts with both strands of the oligonucleotides”.
